The values that follow come from BindingDB's records for doi:10.1021/jm00108a031 (Roche Research Center, 1991).

The first test is described as follows: Compound tested in vitro for Platelet activating factor receptor antagonist activity in a binding assay using washed whole dog platelets.
`Cc1nnc2n1-c1sc(C#Cc3cccc4ccccc34)cc1C(c1ccccc1Cl)=NC2` registered a half-inhibitory concentration (IC50) of 150 nM.

Consider `Cc1nnc2n1-c1sc(/C=C\c3ccccn3)cc1C(c1ccccc1Cl)=NC2`, for which the concentration for half-maximal inhibition (IC50) came out at 400 nM. This IC50 lies about 2.7-fold higher than the previous one.

`Cc1nnc2n1-c1sc(C#CC(=O)N3CCOCC3)cc1C(c1ccccc1Cl)=NC2`: the concentration for half-maximal inhibition (IC50) stood at 260 nM. This IC50 is about 1.5-fold lower than that of the molecule before.

Consider `Cc1nnc2n1-c1sc(C#Cc3ccc(CC(C)C)cc3)cc1C(c1ccccc1Cl)=NC2`, for which the IC50 was determined as 100 nM.

As to `Cc1nnc2n1-c1sc(C#Cc3ccccc3)cc1C(c1ccccc1Cl)=NC2`, the IC50 came to 100 nM.

A further test in a line: In vitro for platelet activating factor receptor antagonist activity in a binding assay using washed whole dog platelets.
Consider `Cc1nnc2n1-c1sc(CCc3ccc4c(c3)CCC4)cc1C(c1ccccc1Cl)=NC2`, for which the IC50 came out at 20 nM.

Molecule `Cc1nnc2n1-c1sc(CCc3ccc(CC(C)C)cc3)cc1C(c1ccccc1Cl)=NC2` showed a half-inhibitory concentration (IC50) of 30 nM.

`Cc1nnc2n1-c1sc(C#Cc3ccc4c(c3)CCC4)cc1C(c1ccccc1Cl)=NC2`: the concentration for half-maximal inhibition (IC50) was determined as 380 nM.

`Cc1nnc2n1-c1sc(-c3nn[nH]c3C(=O)N3CCOCC3)cc1C(c1ccccc1Cl)=NC2` yielded an IC50 of 1000 nM.

Molecule `Cc1nnc2n1-c1sc(/C=C\c3ccc(CC(C)C)cc3)cc1C(c1ccccc1Cl)=NC2` had an IC50 of 80 nM.

In the case of `Cc1nnc2n1-c1sc(C#CCO)cc1C(c1ccccc1Cl)=NC2`, the half-maximal inhibitory concentration (IC50) was determined as 180 nM.

For the molecule `Cc1nnc2n1-c1sc(-c3cc(=O)[nH][nH]3)cc1C(c1ccccc1Cl)=NC2`, the IC50 turned out to be 1000 nM. This IC50 lies about 5.6-fold higher than the previous one.

`Cc1nnc2n1-c1sc(/C=C\c3ccc4c(c3)CCC4)cc1C(c1ccccc1Cl)=NC2` yielded an IC50 of 110 nM.

As to `Cc1nnc2n1-c1sc(C#Cc3ccc(-c4ccccn4)s3)cc1C(c1ccccc1Cl)=NC2`, the IC50 was determined as 60 nM.

Take `CCCCc1ccc(/C=C\c2cc3c(s2)-n2c(C)nnc2CN=C3c2ccccc2Cl)cc1`: the IC50 worked out at 10 nM.

Regarding `Cc1nnc2n1-c1sc(CCc3ccc4c(c3)CCO4)cc1C(c1ccccc1Cl)=NC2`, the IC50 came to 20 nM.

Molecule `CCCCc1ccc(CCc2cc3c(s2)-n2c(C)nnc2CN=C3c2ccccc2Cl)cc1` showed a half-inhibitory concentration (IC50) of 10 nM.

For the molecule `Cc1cc(C#Cc2cc3c(s2)-n2c(C)nnc2CN=C3c2ccccc2Cl)cc2c1OC(C)(C)C2`, the IC50 was determined as 400 nM. Compared with the last molecule, the IC50 is about 40-fold higher.

In the case of `Cc1nnc2n1-c1sc(CCc3ccc(C4CCCCC4)cc3)cc1C(c1ccccc1Cl)=NC2`, the IC50 was found to be 35 nM.

As to `CCCCc1ccc(C#Cc2cc3c(s2)-n2c(C)nnc2CN=C3c2ccccc2Cl)cc1`, the 50% inhibitory concentration (IC50) worked out at 650 nM.

`Cc1nnc2n1-c1sc(CCc3ccc(-c4ccccn4)s3)cc1C(c1ccccc1Cl)=NC2` gave an IC50 of 8 nM.

Regarding `Cc1cc(CCc2cc3c(s2)-n2c(C)nnc2CN=C3c2ccccc2Cl)cc2c1OC(C)(C)C2`, the 50% inhibitory concentration (IC50) is 400 nM.

Take `Cc1nnc2n1-c1sc(C#Cc3ccc(C4CCCCC4)cc3)cc1C(c1ccccc1Cl)=NC2`: the IC50 was found to be 300 nM.

In turn, `C#Cc1cc2c(s1)-n1c(C)nnc1CN=C2c1ccccc1Cl` registered an IC50 of 10 nM.

`Cc1nnc2n1-c1sc(C#C[Si](C)(C)C)cc1C(c1ccccc1Cl)=NC2` came in with an IC50 of 20 nM.

`Cc1nnc2n1-c1sc(CCc3ccc(-n4ccnc4)cc3)cc1C(c1ccccc1Cl)=NC2` showed an IC50 of 100 nM.

The molecule `Cc1nnc2n1-c1sc(/C=C\c3ccc(C4CCCCC4)cc3)cc1C(c1ccccc1Cl)=NC2` showed a concentration for half-maximal inhibition (IC50) of 120 nM.

`Cc1nnc2n1-c1sc(/C=C\C(=O)N3CCOCC3)cc1C(c1ccccc1Cl)=NC2` registered a half-inhibitory concentration (IC50) of 180 nM.

The molecule `Cc1nnc2n1-c1sc(C(CC(=O)N3CCOCC3)N=N)cc1C(c1ccccc1Cl)=NC2` (configuration not stated) yielded a half-maximal inhibitory concentration (IC50) of 420 nM. Compared with the last molecule, the IC50 is about 2.3-fold higher.

`Cc1nnc2n1-c1sc(C#Cc3ccccn3)cc1C(c1ccccc1Cl)=NC2`: the IC50 amounted to 250 nM. This IC50 is about 1.7-fold lower than that of the molecule before.

For `Cc1nnc2n1-c1sc(C#Cc3ccc4c(c3)CCO4)cc1C(c1ccccc1Cl)=NC2`, the IC50 worked out at 420 nM.

`Cc1nnc2n1-c1sc(Br)cc1C(c1ccccc1Cl)=NC2` [2-Bromo-4-(2-chloro-phenyl)-9-methyl-6H-1-thia-5,7,8,9a-tetraaza-cyclopenta[e]azulene]: the IC50 turned out to be 300 nM.

For orientation: IC50 means the concentration that inhibits the measured activity by half. Low readings indicate greater potency in that assay, high ones weaker potency in that assay.
